Test results taken from US5929074A, “Pyridazinone derivatives with pharmaceutical activity” (Nissan Chemical Industries, Ltd., priority 1993, dated 1999).
Like-named read-outs stand apart in the source and are kept apart here.

Key:
histamine H1 receptor = target: T1, histamine H1 receptor (Bos taurus, UniProt P30546); test: Binding test employing 3H-pyrilamine (histamine H1 receptor-binding test); settings: 0.5 h
T1 construct: suspension of bovine cerebellum; from tissue; host or cells: bovine cerebellum
T1 sequence (P30546 whole entry): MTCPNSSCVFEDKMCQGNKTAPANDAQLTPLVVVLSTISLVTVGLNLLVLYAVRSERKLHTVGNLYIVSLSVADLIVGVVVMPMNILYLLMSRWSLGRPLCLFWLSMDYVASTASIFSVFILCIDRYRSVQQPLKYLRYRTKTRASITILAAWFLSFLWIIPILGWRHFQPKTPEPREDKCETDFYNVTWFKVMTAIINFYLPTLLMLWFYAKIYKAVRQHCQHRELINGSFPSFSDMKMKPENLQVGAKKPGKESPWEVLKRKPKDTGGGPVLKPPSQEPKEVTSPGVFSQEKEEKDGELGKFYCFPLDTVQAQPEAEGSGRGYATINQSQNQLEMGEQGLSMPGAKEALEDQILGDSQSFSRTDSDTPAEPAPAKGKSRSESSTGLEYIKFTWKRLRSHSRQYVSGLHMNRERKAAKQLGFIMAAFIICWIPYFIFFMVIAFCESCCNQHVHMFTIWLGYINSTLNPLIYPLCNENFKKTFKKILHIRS
Method: Tritiated pyrilamine was added to a suspension of bovine cerebellum and a 50 mM phosphate buffer solution (pH 7.5), and the mixture was left to stand still at 25° C. for 30 minutes. Then, the mixture was rapidly filtered under suction through a glass fiber filter paper, and the radio activities on the filter paper were measured.

[1] = test system: anaphylactic bronchoconstriction mediated by endogeneously liberated SRS-A; test: Effect on anaphylactic bronchoconstriction mediated by endogeneously liberated SRS-A in passively sensitized guinea-pig; format: in vivo; settings: for inhibition in vivo at 30 mg/kg: Cavia porcellus, po, 2 h
Method: Effect on anaphylactic bronchoconstriction mediated by endogeneously liberated SRS-A in passively sensitized guinea-pig
Male guinea-pigs (350-450 g) were passively sensitized with intravenous (i.v.) injection of 0.125 ml rabbit anti-EA (egg albumin) serum (Capple Laboratories) 1 to 2 days preceding the experiment. Antigen-induced anaphylactic bronchoconstrictions mediated by endogeneously liberated SRS-A were measured by modified method of Konzett and Rossler (Arch. Exp. Path. Pharmak., 195, 71, 1940). Sensitized quinea-pigs were anaesthetized with intraperitoneal injection of urethane (1.5 g/kg). The right jugular vein was cannulated for the administration of the all agents and trachea was cannulated to record total pulmonary resistance. Guinea-pigs were artificially ventilated by a small animal respirator (Shinano, Model SN-480-7) set at a stroke volume of 4.5 ml and a rate of 50 breaths per min. The change in pulmonary resistance was measured with a pressure transducer (Nihon Kohden, Model TP-602T) connected to a T-tube on the tracheal cannula. The percentage of the maximum bronchoconstriction obtained by clamping off the trachea. Following surgical preparation, the animals were pretreated with indomethacin (2 mg/kg, 10 min), pyrilamine (2 mg/kg, 6 min) and propranolol (0.1 mg/kg, 5 min) prior to the EA challenge (0.2 mg/kg). All test compounds were administered orally 2 hours before the EA challenge. Inhibition (%) of broncho-constriction was determined as follows: Inhibition (%)=(1.0-% maximum bronchoconstriction in test/% maximum bronchoconstriction in control)×100. The maximum bronchoconstriction was 62±6% (Mean±S.E.M; n=6) and the number of test animals was 5-6.

platelet = test: Anti-platelet aggregation effect in rabbits (ADP-induced); format: cell-based, rabbit; settings: read-out: IC50 (concentration at which aggregation of control sample was 50% inhibited)
Method: Anti-platelet aggregation effect in rabbits
Blood was collected from the abdominal artery of Japanese white male rabbits (weight: 1.8 to 2.5 kg) into a syringe containing 1/10 volume 3.8% sodium citrate. The blood thus obtained was subjected to a centrifugation at 200×g for 7 minutes at room temperature to obtain platelet rich plasma (PRP). Furthermore, the residue was subjected to a centrifugation at 2000×g for 10 minutes to obtain platelet poor plasma (PPP). The measurement was effected by diluting PRP with PPP to 300,000/mm^3. PRP and PPP were placed in a cuvette, and the measurement range of transmittance was adjusted to 0% in the case of PRP and to 100% in the case of PPP. Thereafter, a test sample drug dissolved in 100% dimethylsulfoxide (DMSO) was added to PRP (the final concentration of DMSO: 0.25%). After incubation was effected at 37° C. at 900 rpm for 2 minutes, an aggregating agent was added to record an aggregation curve. The anti-platelet aggregation effect of the test sample drug was expressed by a concentration (IC50 : μM) at which the aggregation of control sample was 50% inhibited. The aggregating agent ADP was used at the minimum concentration (5 to 10 μM) which caused the maximum aggregation. The measurement of platelet aggregation was carried out by using NBS HEMA TRACER 601.

guinea-pig trachea [2] = test: Bronchodilating effect in vitro, Method 1-1: relaxation of LTD4-contracted guinea-pig trachea strips; format: cell-based; settings: Cavia porcellus, read-out: EC50 (concentration to achieve 50% relaxation relative to relaxation by 1 mM aminophylline)
Method: (§1) A test sample drug was dissolved in 100% dimethylsulfoxide (DMSO, Wako Junyaku) and diluted for use. Leukotriene D4 (LTD4, Ultrafine) and isoproterenol (Isoproterenol, Sigma) were diluted with distilled water. Indomethacin (Indo, Sigma) was dissolved in 100% ethanol (EtOH, Komune Kagaku). Aminophylline (AP, Sigma), histamine dihydrochloride (His, Wako Junyaku) was dissolved in distilled water. The final concentrations of DMSO and EtOH in a bath were made not higher than 0.25% v/v and not higher than 0.1% v/v, respectively. Method 1:1:
(§2) A guinea-pig of 300-450 g was exsanguinated, and the trachea was taken out. After removing fat and connective tissues, it was cut and divided into 2 to 3 spiral strips, each having a width of about 2 mm and containing 4 smooth muscle tissues. Each specimen thus prepared was suspended in an organ bath of 8 ml containing a modified Tyrode solution aerated with 95% O2 +5% CO2 at 37° C., and a load of 1 g was applied thereto. The relaxation of the muscle was recorded by a pen recorder (Yokogawa Hokushin Electric, type 3066) by means of an isotonic transducer (Nihon Kohden, TD-112S).
The composition of the modified Tyrode solution was as follows (mM):
The specimen was allowed to stand for 50-60 minutes, and was contracted with histamine dihydrochloride (100 μM). After the reaction became constant, it was washed and allowed to stand for 20-30 minutes. Indomethacin (5 μM) was added thereto, and after incubation for 30 minutes, the specimen was contracted by adding LTD4 (30 nM). After the reaction-became stable, a test sample drug was accumulatively administered. Finally, AP (1 mM) was added to achieve the maximum relaxation reaction. The result was expressed by relaxation percent relative to the relaxation by AP which was rated 100%, and a concentration to achieve 50% relaxation (EC50, μM) was measured. As a control drug, AP was used.

guinea-pig trachea [3] = test: Bronchodilating effect in vitro, Method 1-2: relaxation of guinea-pig trachea strips (no LTD4 contraction); format: cell-based; settings: Cavia porcellus, read-out: EC50 (concentration to achieve 50% relaxation relative to relaxation by 1 mM aminophylline)
Method: as §1, §2
The same measuring method as method 1-1 was employed. The specimen was allowed to stand for from 60 to 90 minutes and then relaxed by an addition of 1 μM of isopreterenol. The specimen was washed, and this operation was repeated at an interval of from 30 to 40 minutes until a constant relaxation reaction was reached. Then, a test sample drug was accumulately applied to relax the specimen. Finally, 1 mM of AP was added to achieve the maximum relaxation reaction. The result was expressed by relaxation percent relative to the relaxation by AP which was rated 100%, and a concentration to achieve 50% relaxation (EC50, μM) was obtained. The final concentration of DMSO in the bath was adjusted to be 0.2 v/v%. As a control drug, AP was used.

[4] = 10 μM, bovine cerebellum, pH 7.5, 25° C., 30 minutes, read-out: Inhibition ratio against H1-receptor
[5] = 30 mg/kg, orally 2 hours before EA challenge
[6] = Method 1-1, LTD4 (30 nM) contracted trachea, indomethacin 5 μM
[7] = Oryctolagus cuniculus, Platelet, rabbit PRP, ADP 5 to 10 μM, 37° C.
[8] = Method 1-2, trachea conditioned with 1 μM isoproterenol, no LTD4, DMSO 0.2 v/v%
[9] = 30 mg/kg, orally 2 hours before EA challenge, read-out: Inhibition of broncho-constriction

Row | Compound | inhibition at 10 µM (histamine H1 receptor; [4]) [%] | EC50 (guinea-pig trachea [2]; [6]) [nM] | IC50 (platelet; [7]) [nM] | EC50 (guinea-pig trachea [3]; [8]) [nM] | inhibition in vivo at 30 mg/kg [1, 9] [%] | further results
1 | COc1ccc(CNc2cn[nH]c(=O)c2Br)cc1OCCN1CCN(Cc2ccc(Cl)cc2)CC1.O=C(O)/C=C/C(=O)O [Compound 8, 4-Bromo-5-[3-{2-(4-(4-chlorobenzyl)-piperazin-1-yl)-ethoxy}-4-methoxybenzylamino]-3(2H)-pyridazinone fumarate] | 56.5 |  |  |  |  | Inhibition of broncho-constriction [1, 5]: 32%; IC50 (platelet; rabbit PRP, ADP 5 to 10 μM, 37° C., fumarate): 5500 nM
2 | COc1ccc(CNc2cn[nH]c(=O)c2Br)cc1OCCN1CCN(Cc2ccc(Cl)cc2)CC1.Cl [Compound 7, 4-Bromo-5-[3-{2-(4-(4-chlorobenzyl)-piperazin-1-yl)-ethoxy}-4-methoxybenzylamino]-3(2H)-pyridazinone hydrochloride] |  | 490 | 5400 |  |  | inhibition at 10 µM (histamine H1 receptor; pH 7.5, read-out: Inhibition ratio against H1-receptor, 10 μM, bovine cerebellum, pH 7.5, 25° C., 30 minutes): 56.1%; Inhibition of broncho-constriction [1, 5]: 59%
3 | COc1ccc(CNc2c([N+](=O)[O-])n[nH]c(=O)c2Cl)cc1OCCCN1CCN(Cc2ccc(Cl)cc2)CC1 [Compound 29] | 93.6 |  |  |  |  | 
4 | CCOc1n[nH]c(=O)c(Cl)c1NCc1ccc(OC)c(OCC(=O)N2CCN(Cc3ccc4ccccc4n3)CC2)c1 [Compound 67] |  | 170 | 400 | 41 | 29 | 
5 | CCOc1n[nH]c(=O)c(Cl)c1NCc1ccc(OC)c(OCC(=O)N2CCN(Cc3ccc(F)cc3)CC2)c1 [Compound 64] |  | 320 | 390 | 61 | 26 | 
6 | COc1ccc(CNc2cn[nH]c(=O)c2Br)cc1OCC(=O)N1CCN(Cc2ccc(F)cc2)CC1 [Compound 43] |  | 400 | 2200 | 280 | 62 | 
7 | COc1ccc(CNc2cn[nH]c(=O)c2Cl)cc1OCC(=O)N1CCN(Cc2ccccc2)CC1 [Compound 36] |  |  |  |  |  | EC50 (guinea-pig trachea [2]): 320 nM; EC50 (guinea-pig trachea [3]): 240 nM; inhibition in vivo at 30 mg/kg ([1]; read-out: Inhibition of broncho-constriction, 30 mg/kg, orally 2 hours before EA challenge): 41%; IC50 (platelet; Oryctolagus cuniculus, Platelet): 1600 nM

The next lines start with results.

Row | inhibition at 10 µM (histamine H1 receptor; [4]) [%] | EC50 (guinea-pig trachea [2]; [6]) [nM] | Compound | IC50 (platelet; [7]) [nM] | EC50 (guinea-pig trachea [3]; [8]) [nM] | inhibition in vivo at 30 mg/kg [1, 9] [%] | further results
8 | 55.8 | 3300 | CCn1ncc(NCc2ccc(OC)c(OCCN3CCN(Cc4ccc(F)cc4)CC3)c2)c(Cl)c1=O [Compound 17] |  |  |  | 
9 | 92.2 | 1300 | COc1ccc(CNc2cn[nH]c(=O)c2Cl)cc1OCCCN1CCN(Cc2ccccc2)CC1 [Compound 23] | 4600 |  |  | 
10 | 92.6 | 750 | COc1ccc(CNc2cn[nH]c(=O)c2Cl)cc1OCCCN1CCN(Cc2ccc(F)cc2)CC1 [Compound 26] |  | 910 | 36 | 
11 | 86.6 | 390 | COc1ccc(CNc2cn[nH]c(=O)c2Br)cc1OCCCN1CCN(Cc2ccccc2)CC1 [Compound 22] | 2100 |  |  | 
12 | 90.5 | 2600 | COc1ccc(CNc2c(Cl)n[nH]c(=O)c2Cl)cc1OCCCN1CCN(Cc2ccc(Cl)cc2)CC1 [Compound 30] |  |  |  | 
13 | 89.2 | 2000 | COc1ccc(CNc2c([N+](=O)[O-])n[nH]c(=O)c2Cl)cc1OCCCN1CCN(Cc2ccccc2)CC1 [Compound 24] |  | 980 |  | 
14 | 94.4 | 470 | COc1ccc(CNc2c(Cl)n[nH]c(=O)c2Cl)cc1OCCCN1CCN(Cc2ccccc2)CC1 [Compound 25] | 5100 |  | 59 | 
